From the NIST ThermoML archive (doi:10.1021/je049701s)
± gives the expanded uncertainty stated by the source.

Details: Liquid; for mass density: 293.1 K, 101.33 kPa; for vapor or sublimation pressure: Ebulliometric method (Recirculating still)

Cc1ccccc1C [1,2-dimethylbenzene]
Details | Normal boiling temperature [°C] | mass density [kg/m3] | vapor or sublimation pressure [kPa]
396.73 K | – | – | 55 ± 0.03
399.52 K | – | – | 60 ± 0.03
400.66 K | – | – | 62.13 ± 0.03
404.71 K | – | – | 70 ± 0.03
407.05 K | – | – | 75 ± 0.03
409.44 K | – | – | 80.33 ± 0.04
411.44 K | – | – | 85 ± 0.04
413.5 K | – | – | 90 ± 0.04
415.44 K | – | – | 95 ± 0.04
418.23 K | – | – | 102.5 ± 0.04
427 K | – | – | 129.3 ± 0.04
Vibrating tube method | – | 879.8 ± 0.13 | –
ebulliometry | 144.40 ± 0.005 | – | –

Cc1cccc(C)c1 [1,3-dimethylbenzene]
Details | mass density [kg/m3] | vapor or sublimation pressure [kPa]
– | 864.2 ± 0.45 | –
362.45 K | – | 21.82 ± 0.33
366.31 K | – | 25 ± 0.36
371.49 K | – | 29.94 ± 0.4
376.31 K | – | 35 ± 0.45
380.81 K | – | 40.36 ± 0.5
384.3 K | – | 45 ± 0.55
387.84 K | – | 50 ± 0.61
389.84 K | – | 53.54 ± 0.73
393.34 K | – | 60 ± 0.73
397.71 K | – | 67.97 ± 0.79
400.96 K | – | 75 ± 0.87
403.25 K | – | 80 ± 0.92
406.5 K | – | 87.74 ± 0.94
407.5 K | – | 90 ± 1
409.4 K | – | 95 ± 1.1
415.54 K | – | 111.8 ± 1.2
423.34 K | – | 137.3 ± 1.3

Cc1ccc(C)cc1 [1,4-dimethylbenzene]
Details | mass density [kg/m3] | vapor or sublimation pressure [kPa]
– | 861.2 ± 0.45 | –
389.8 K | – | 53.26 ± 0.67
390.85 K | – | 55 ± 0.71
393.61 K | – | 60 ± 0.77
398.72 K | – | 70 ± 0.8
401.06 K | – | 75 ± 0.88
403.29 K | – | 80 ± 0.91
405.37 K | – | 84.84 ± 0.99
409.38 K | – | 95 ± 1.2
420.93 K | – | 129.7 ± 1.2

CCc1ccccc1 [ethylbenzene]
Details | mass density [kg/m3] | vapor or sublimation pressure [kPa]
– | 867.1 ± 0.44 | –
385.7 K | – | 50 ± 0.66
387.75 K | – | 53.37 ± 0.69
391.51 K | – | 60 ± 0.73
394.15 K | – | 65 ± 0.8
397.49 K | – | 71.87 ± 0.84
398.93 K | – | 75 ± 0.89
401.16 K | – | 80 ± 0.92
403.27 K | – | 85 ± 0.98
405.26 K | – | 90 ± 1
407.14 K | – | 95 ± 1.1
412.49 K | – | 110.02 ± 1.2
417 K | – | 124.3 ± 1.3
